≈ marks a conversion by molar mass, not a printed value.
Test system: MDA-MB-231
Assay: Cytotoxicity against human MDA-MB-231 cells by MTT assay
Format: functional, cell-based

C[C@H]1CC[C@H]2[C@@H]3CC(=O)[C@H](Cn4c(O)nc5c(O)ncnc54)[C@@]13CC2(C)C
IC50: 8.87 µg/mL (≈ 23.9 µM)

— ChEMBL document CHEMBL1149842, “Purine alkaloids from the South China Sea gorgonian Subergorgia suberosa” (J Nat Prod, 2008)
